Results reported in patent publication US20260200916A1, “6,6 BICYCLIC HETEROCYLES USEFUL AS INHIBITORS OF NOD-LIKE RECEPTOR PROTEIN 3” (Merck Sharp & Dohme LLC, priority 2022, published 2026).

Molecular target: T1, NLRP3 inflammasome (Homo sapiens, UniProt Q96P20)
T1 construct: host or cells: THP-1 human monocytic cells, PMA-differentiated, gramicidin-stimulated
Assay: ASC-SPECK formation in THP-1 cells after gramicidin stimulation (NLRP3 inflammasome activation)
Assay type: cell-based
Details: PMA-treated human monocytic THP-1 cells, compound added 1 h before 12.5 ug/ml gramicidin, 3-hour treatment, ASC SPECK imaging; read-out: EC50 (nM), inhibition of NLRP3 inflammasome activation
Experimental: The ability of compounds to inhibit NLRP3 inflammasome activation was determined in vitro by monitoring formation of the ASC-SPECK in human monocytic THP-1 cells after stimulation. THP-1 cells (ATCC catalog #TIB-202) were maintained in complete growth media containing Roswell Park Memorial Institute RPMI (ATCC catalog #30-2001), 10% heat inactivated fetal bovine serum, 1× penicillin/streptomycin and 0.05 mM 2-mercaptoethanol. At the start of the assay, undifferentiated THP-1 cells were plated at a density of 20,000 cells per well in a 384-well plate (Poly-D-lysine coated Cell Carrier Ultra microplate, Perkin Elmer catalog #6057500) in complete growth media supplemented with 10 ng/ml phorbol 12-myristate 13-acetate (PMA; Sigma catalog #P8139), and then incubated overnight. The next day, media was replaced with assay media [RPMI (Gibco catalog #11875-093), 0.01% bovine serum albumin (BSA)]. Compounds were serially diluted in DMSO and then added to wells one hour prior to the addition of 12.5 ug/ml Gramicidin (Enzo Lifescience, catalog #ALX-350-233-M005). All incubations were carried out at 37° C. (5% C02/95% air). Following a 3-hour treatment with gramicidin, cells are fixed with 4% paraformaldehyde and stored at 4° C. until immunofluorescence staining.
Immunofluorescence staining: Anti-ASC antibody (MBL catalog #D086-3) was desalted and labeled with Alexa 488 antibody labeling kit (Thermo catalog #A20181) prior to use as described below. After fixation, the following steps were carried out at room temperature. Cells were first permeabilized with 0.3% Triton X-100 in phosphate-buffered saline (PBS) for 15 minutes and then incubated in blocking buffer containing 5% goat serum, 0.3% tween-20 and 0.03% sodium azide in PBS for 1 hour. Cells were stained with a mixture of ASC-Alexa 488 antibody (diluted 1:200 in blocking buffer) and nuclear stain DRAQ5 (1:5000 in blocking buffer, Thermo catalog #62251) in blocking buffer for 1 hour. Following a wash with 0.3% Tween-20 in PBS, plates were imaged with an Opera Phenix High Content Screening System. The number of DRAQ5 positive cells containing ASC SPECKS were quantified in each well.
Data analysis: EC50 values were calculated by standard curve-fitting analysis using an internally developed program in TIBCO Spotfire software.

T1 sequence (Q96P20 whole entry): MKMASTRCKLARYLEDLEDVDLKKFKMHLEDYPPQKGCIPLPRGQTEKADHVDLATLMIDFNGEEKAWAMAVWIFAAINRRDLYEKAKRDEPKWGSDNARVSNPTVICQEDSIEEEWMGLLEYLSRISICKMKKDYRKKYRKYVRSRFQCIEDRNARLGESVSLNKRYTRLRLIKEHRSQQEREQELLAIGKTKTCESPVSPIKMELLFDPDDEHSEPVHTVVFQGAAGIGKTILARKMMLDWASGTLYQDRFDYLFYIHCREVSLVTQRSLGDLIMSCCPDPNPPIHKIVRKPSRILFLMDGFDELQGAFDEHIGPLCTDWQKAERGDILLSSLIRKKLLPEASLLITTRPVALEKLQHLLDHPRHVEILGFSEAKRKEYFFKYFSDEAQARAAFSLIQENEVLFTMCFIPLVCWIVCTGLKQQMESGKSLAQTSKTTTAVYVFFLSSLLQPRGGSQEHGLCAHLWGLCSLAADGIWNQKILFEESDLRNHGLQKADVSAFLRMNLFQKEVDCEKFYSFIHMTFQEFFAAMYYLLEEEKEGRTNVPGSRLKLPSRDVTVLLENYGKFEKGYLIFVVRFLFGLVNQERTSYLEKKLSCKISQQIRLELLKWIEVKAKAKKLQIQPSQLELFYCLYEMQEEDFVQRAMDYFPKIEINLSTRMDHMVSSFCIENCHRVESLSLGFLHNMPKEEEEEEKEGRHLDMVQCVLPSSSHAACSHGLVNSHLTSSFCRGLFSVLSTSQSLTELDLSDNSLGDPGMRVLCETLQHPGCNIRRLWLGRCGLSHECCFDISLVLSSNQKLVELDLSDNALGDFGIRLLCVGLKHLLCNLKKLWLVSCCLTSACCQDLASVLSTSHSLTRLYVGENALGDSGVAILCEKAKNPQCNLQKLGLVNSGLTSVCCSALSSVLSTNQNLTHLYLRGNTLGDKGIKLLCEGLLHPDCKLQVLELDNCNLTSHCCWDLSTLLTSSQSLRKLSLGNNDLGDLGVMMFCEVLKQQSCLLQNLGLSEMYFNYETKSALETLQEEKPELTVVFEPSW

SMILES | EC50
Cc1cc(C(F)(F)F)cc(O)c1-c1cc2c(nn1)N(C[C@@H]1C[C@H](F)CN1C)CCC2 [Example 13, 2-(8-(((2S,4S)-4-fluoro-1-methylpyrrolidin-2-yl)methyl)-5,6,7,8-tetrahydropyrido[2,3-c]pyridazin-3-yl)-3-methyl-5-(trifluoromethyl)phenol] | 629 nM
Cc1cc(C(F)(F)F)cc(O)c1-c1cc2c(nn1)N(C[C@@H]1C[C@@H](F)CN1C(=O)C1CC1)CCC2 [Example 19, cyclopropyl((2S,4R)-4-fluoro-2-((3-(2-hydroxy-6-methyl-4-(trifluoromethyl)phenyl)-6,7-dihydropyrido[2,3-c]pyridazin-8(5H)-yl)methyl)pyrrolidin-1-yl)methanone] | 431 nM
CCN1CCC[C@@H](N2CCCc3cc(-c4c(C)cc(C(F)(F)F)cc4O)nnc32)C1 [Example 2, (R)-2-(8-(1-ethylpiperidin-3-yl)-5,6,7,8-tetrahydropyrido[2,3-c]pyridazin-3-yl)-3-methyl-5-(trifluoromethyl)phenol] | 5 nM
Cc1cc(C(F)(F)F)cc(O)c1-c1cc2c(nn1)N([C@@H]1CCCC[C@H]1O)CCC2 [Example 4, 2-(8-((1R,2R)-2-hydroxycyclohexyl)-5,6,7,8-tetrahydropyrido[2,3-c]pyridazin-3-yl)-3-methyl-5-(trifluoromethyl)phenol] | 157 nM
CCN1CCC[C@@H](N2CCCc3c2nnc(-c2ccc(C(F)(F)F)cc2O)c3C)C1 [Example 9, (R)-2-(8-(1-ethylpiperidin-3-yl)-4-methyl-5,6,7,8-tetrahydropyrido[2,3-c]pyridazin-3-yl)-5-(trifluoromethyl)phenol] | 48 nM
CCN1CCC[C@@H](N2CCCc3c2nnc(-c2ccc(C(F)(F)F)cc2OC(F)F)c3C)C1 [Example 10, (R)-3-(2-(difluoromethoxy)-4-(trifluoromethyl)phenyl)-8-(1-ethylpiperidin-3-yl)-4-methyl-5,6,7,8-tetrahydropyrido[2,3-c]pyridazine] | 380 nM
Cc1cc(C(F)(F)F)cc(O)c1-c1cc2c(nn1)N([C@H]1CN(C)CC[C@H]1O)CCC2 [Example 14, (3S,4R)-3-(3-(2-hydroxy-6-methyl-4-(trifluoromethyl)phenyl)-6,7-dihydropyrido[2,3-c]pyridazin-8(5H)-yl)-1-methylpiperidin-4-ol] | 27 nM
CC(=O)N1C[C@H](F)C[C@H]1CN1CCCc2cc(-c3c(C)cc(C(F)(F)F)cc3O)nnc21 [Example 16, 1-((2S,4R)-4-fluoro-2-((3-(2-hydroxy-6-methyl-4-(trifluoromethyl)phenyl)-6,7-dihydropyrido[2,3-c]pyridazin-8(5H)-yl)methyl)pyrrolidin-1-yl)ethan-1-one] | 317 nM
Cc1cc(C(F)(F)F)cc(O)c1-c1cc2c(nn1)N(C1CC(C)(C)C1O)CCC2 (single isomer, unassigned) [Example 6, 2-(8-((1R,2S or 1S,2R)-2-hydroxy-3,3-dimethylcyclobutyl)-5,6,7,8-tetrahydropyrido[2,3-c]pyridazin-3-yl)-3-methyl-5-(trifluoromethyl)phenol] | 118 nM
CCN1CCC[C@@H](N2CCCc3c2nnc(-c2ccc4occc4c2)c3C)C1 [Example 12, (R)-3-(benzofuran-5-yl)-8-(1-ethylpiperidin-3-yl)-4-methyl-5,6,7,8-tetrahydropyrido[2,3-c]pyridazine] | 253 nM
Cc1cc(C(F)(F)F)cc(O)c1-c1cc2c(nn1)N(C[C@@H]1C[C@@H](F)CN1S(C)(=O)=O)CCC2 [Example 21, 2-(8-(((2S,4R)-4-fluoro-1-(methylsulfonyl)pyrrolidin-2-yl)methyl)-5,6,7,8-tetrahydropyrido[2,3-c]pyridazin-3-yl)-3-methyl-5-(trifluoromethyl)phenol] | 351 nM
Cc1cc(C(F)(F)F)cc(O)c1-c1cc2c(nn1)N(C13CCCC(O)(C1)C3)CCC2 [Example 3, 5-(3-(2-hydroxy-6-methyl-4-(trifluoromethyl)phenyl)-6,7-dihydropyrido[2,3-c]pyridazin-8(5H)-yl)bicyclo[3.1.1]heptan-1-ol] | 125 nM
CCC(=O)N1C[C@H](F)C[C@H]1CN1CCCc2cc(-c3c(C)cc(C(F)(F)F)cc3O)nnc21 [Example 18, 1-((2S,4R)-4-fluoro-2-((3-(2-hydroxy-6-methyl-4-(trifluoromethyl)phenyl)-6,7-dihydropyrido[2,3-c]pyridazin-8(5H)-yl)methyl)pyrrolidin-1-yl)propan-1-one] | 204 nM
Cc1cc(C(F)(F)F)cc(O)c1-c1cc2c(nn1)N(C[C@@H]1C[C@@H](F)CN1C(=O)C1CCC1)CCC2 [Example 20, cyclobutyl((2S,4R)-4-fluoro-2-((3-(2-hydroxy-6-methyl-4-(trifluoromethyl)phenyl)-6,7-dihydropyrido[2,3-c]pyridazin-8(5H)-yl)methyl)pyrrolidin-1-yl)methanone] | 874 nM
CCN1CCC[C@@H](N2CCCc3c2nnc(-c2ccc(C(F)(F)F)nc2OC(F)F)c3C)C1 [Example 11, (R)-3-(2-(difluoromethoxy)-6-(trifluoromethyl)pyridin-3-yl)-8-(1-ethylpiperidin-3-yl)-4-methyl-5,6,7,8-tetrahydropyrido[2,3-c]pyridazine] | 1070 nM
CCN1C[C@@H](F)C[C@H]1CN1CCCc2cc(-c3c(C)cc(C(F)(F)F)cc3O)nnc21 [Example 15, 2-(8-(((2S,4S)-1-ethyl-4-fluoropyrrolidin-2-yl)methyl)-5,6,7,8-tetrahydropyrido[2,3-c]pyridazin-3-yl)-3-methyl-5-(trifluoromethyl)phenol] | 692 nM
Cc1cc(C(F)(F)F)cc(O)c1-c1cc2c(nn1)N(C[C@@H]1C[C@H](F)CN1S(C)(=O)=O)CCC2 [Example 22, 2-(8-(((2S,4S)-4-fluoro-1-(methylsulfonyl)pyrrolidin-2-yl)methyl)-5,6,7,8-tetrahydropyrido[2,3-c]pyridazin-3-yl)-3-methyl-5-(trifluoromethyl)phenol] | 784 nM
Cc1cc(C(F)(F)F)cc(O)c1-c1cc2c(nn1)N(C1CC(C)(C)C1O)CCC2 (single isomer, unassigned) [Example 5, 2-(8-((1S,2R or 1R,2S)-2-hydroxy-3,3-dimethylcyclobutyl)-5,6,7,8-tetrahydropyrido[2,3-c]pyridazin-3-yl)-3-methyl-5-(trifluoromethyl)phenol] | 1430 nM
CC(=O)N1C[C@@H](F)C[C@H]1CN1CCCc2cc(-c3c(C)cc(C(F)(F)F)cc3O)nnc21 [Example 17, 1-((2S,4S)-4-fluoro-2-((3-(2-hydroxy-6-methyl-4-(trifluoromethyl)phenyl)-6,7-dihydropyrido[2,3-c]pyridazin-8(5H)-yl)methyl)pyrrolidin-1-yl)ethan-1-one] | 597 nM
Cc1cc(C(F)(F)F)cc(O)c1-c1cc2c(nn1)N(C[C@@H]1C[C@H](F)CN1)CCC2 [Example 7, 2-(8-(((2S,4S)-4-fluoropyrrolidin-2-yl)methyl)-5,6,7,8-tetrahydropyrido[2,3-c]pyridazin-3-yl)-3-methyl-5-(trifluoromethyl)phenol] | 240 nM
Cc1cc(C(F)(F)F)cc(O)c1-c1cc2c(nn1)N([C@H]1C[C@@](C)(O)C1)CCC2 [Example 1, 2-(8-((1s,3s)-3-hydroxy-3-methylcyclobutyl)-5,6,7,8-tetrahydropyrido[2,3-c]pyridazin-3-yl)-3-methyl-5-(trifluoromethyl)phenol] | 42 nM
Cc1cc(C(F)(F)F)cc(O)c1-c1cc2c(nn1)N([C@H]1C[C@@](C)(O)C1)C[C@H](N)C2 [Example 8, 2-((R)-6-amino-8-((1s,3S)-3-hydroxy-3-methylcyclobutyl)-5,6,7,8-tetrahydropyrido[2,3-c]pyridazin-3-yl)-3-methyl-5-(trifluoromethyl)phenol] | 285 nM
